Data: the supplement of paper PMC10307832

Tests used:
Assay in all cases: relative viability (nuclei count vs DMSO), 5 days (fraction); higher = more cells survive
Obatoclax + Navitoclax = compound: COC1=CC(c2cc3ccccc3[nH]2)=N/C1=C\c1[nH]c(C)cc1C [Obatoclax] + CC1(C)CCC(c2ccc(Cl)cc2)=C(CN2CCN(c3ccc(C(=O)NS(=O)(=O)c4ccc(N[C@H](CCN5CCOCC5)CSc5ccccc5)c(S(=O)(=O)C(F)(F)F)c4)cc3)CC2)C1 [Navitoclax] (partner 0.5 µM)
Procedure, shortened: (§1)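 Cells from lung cancer lines were seeded into 1536-well plates and, one day later, dosed by pin tool. Treatments were either a single drug or a fixed dose of an anchor drug with five library-drug doses (not always all listed) in √10 steps. After 5 days, nuclei were stained in a one-step fixation (final 0.05% Triton X-100, 1% formaldehyde, 1 ug/ml Hoechst) and counted on 4× images, and relative viability is the treated-to-vehicle nuclei ratio, as the median of duplicate plates.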

[1] = compound: CC1=CC(=NN1)NC2=CC(=NC(=N2)/C=C/C3=CC=CC=C3)N4CCN(CC4)C + CC1(C)CCC(c2ccc(Cl)cc2)=C(CN2CCN(c3ccc(C(=O)NS(=O)(=O)c4ccc(N[C@H](CCN5CCOCC5)CSc5ccccc5)c(S(=O)(=O)C(F)(F)F)c4)cc3)CC2)C1 [Navitoclax] (partner 0.5 µM)
Procedure, shortened: as §1

Bortezomib + Trametinib = compound: CC(C)C[C@H](NC(=O)[C@H](Cc1ccccc1)NC(=O)c1cnccn1)B(O)O [Bortezomib] + CC(=O)Nc1cccc(-n2c(=O)n(C3CC3)c(=O)c3c(Nc4ccc(I)cc4F)n(C)c(=O)c(C)c32)c1 [Trametinib] (partner 0.02 µM)
Procedure, shortened: as §1

[2] = compound: CC1=CC(=NN1)NC2=CC(=NC(=N2)/C=C/C3=CC=CC=C3)N4CCN(CC4)C + Cc1nc(NC(=O)N2CCC[C@H]2C(N)=O)sc1-c1ccnc(C(C)(C)C(F)(F)F)c1 [Alpelisib] (partner 2 µM)
Procedure, shortened: as §1

Row | Cell Line | relative viability (Obatoclax + Navitoclax; first compound 0.01 µM) | relative viability (Obatoclax + Navitoclax; first compound 0.03162 µM) | relative viability (Obatoclax + Navitoclax; first compound 0.1 µM) | relative viability (Obatoclax + Navitoclax; first compound 0.3162 µM) | relative viability (Obatoclax + Navitoclax; first compound 1 µM) | relative viability ([1]; first compound 0.08 µM) | relative viability ([1]; first compound 0.253 µM) | relative viability ([1]; first compound 0.8 µM) | relative viability ([1]; first compound 2.53 µM) | relative viability ([1]; first compound 8 µM) | relative viability (Bortezomib + Trametinib; first compound 0.0002 µM) | relative viability (Bortezomib + Trametinib; first compound 0.000632 µM) | relative viability (Bortezomib + Trametinib; first compound 0.002 µM) | relative viability (Bortezomib + Trametinib; first compound 0.006325 µM) | relative viability (Bortezomib + Trametinib; first compound 0.02 µM) | relative viability ([2]; first compound 0.08 µM) | relative viability ([2]; first compound 0.253 µM) | relative viability ([2]; first compound 0.8 µM) | relative viability ([2]; first compound 2.53 µM) | relative viability ([2]; first compound 8 µM)
1 | NCI-H2228 | 1.16 | 0.984 | 0.677 | 0.919 | 0.944 | 1.11 | 0.893 | 0.747 | 0.0829 | 0.0768 | 0.469 | 0.505 | 0.32 | 0.123 | 0.0916 | 0.632 | 0.714 | 0.437 | 0.112 | 0.0706
2 | NCI-H1944 | 0.97 | 1.01 | 1.05 | 1.05 | 1.08 | 1.04 | 1.08 | 1.03 | 0.866 | 0.266 | 0.43 | 0.371 | 0.397 | 0.297 | 0.193 | 0.816 | 0.995 | 0.759 | 0.568 | 0.304
3 | NCI-H1792 | 0.647 | 0.586 |  | 0.626 | 0.561 | 0.558 | 0.599 | 0.611 | 0.437 | 0.102 | 0.506 | 0.413 | 0.446 | 0.292 | 0.0651 | 0.648 | 0.8 | 0.726 | 0.475 | 0.213
4 | COR-L 105 | 0.815 | 0.649 | 0.792 | 0.741 | 0.388 | 0.739 | 0.976 | 0.727 | 0.4 | 0.206 | 0.449 | 0.42 | 0.414 | 0.375 | 0.376 | 0.946 | 1.08 | 0.967 | 0.605 | 0.186
5 | LU99A | 0.855 | 0.788 | 0.831 | 0.501 | 0.545 | 0.766 | 0.781 | 0.57 | 0.25 | 0.125 | 0.546 | 0.522 | 0.567 | 0.517 | 0.148 | 0.459 | 0.514 | 0.324 | 0.157 | 0.129
6 | H3255 | 0.517 | 0.544 | 0.681 | 0.537 | 0.438 | 0.518 | 0.61 | 0.517 | 0.43 | 0.0832 | 0.593 | 0.69 | 0.331 | 0.239 | 0.274 | 0.753 | 0.735 | 0.772 | 0.593 | 0.182
7 | NCI-H1734 | 0.745 | 0.841 |  | 0.723 | 0.668 | 0.837 | 0.81 | 0.8 | 0.331 | 0.108 | 0.647 | 0.7 | 0.685 | 0.161 | 0.0924 | 0.601 | 0.695 | 0.692 | 0.375 | 0.189
8 | NCI-H1915 | 0.766 | 0.638 | 0.711 | 0.76 | 0.785 | 0.762 | 0.8 | 0.779 | 0.539 | 0.213 | 0.283 | 0.307 | 0.33 | 0.196 | 0.0537 | 1.07 | 1.07 | 0.977 | 0.806 | 0.324
